Patent publication US7138543B2, “Thiolalkyl benzoic acid derivatives” (Guilford Pharmaceuticals Inc., priority 2001, dated 2006)

What was measured:
cortical cell cultures = assay: In vitro assay on ischemia (potassium cyanide and 2-deoxyglucose insult); type: cell-based; settings: concentration required to cause a 50% reduction in glutamate toxicity following an ischemic insult; unit inferred
Protocol: In vitro Assay on Ischemia
To examine the in vitro effect of the compounds of the invention on ischemia, cortical cell cultures were treated with various compounds of the invention during an ischemic insult utilizing potassium cyanide and 2-deoxyglucose, and for one hour thereafter. For a description of the experimental method used, see Vornov et al., J. Neurochem., Vol. 65, No. 4, pp. 1681–1691 (1995).

NAALADase = molecular target: T1, NAALADase (Homo sapiens, UniProt Q04609); assay: In vitro inhibition of NAALADase activity; type: biochemical; settings: unit inferred
T1 construct: from tissue; host or cells: unspecified tissue
T1 sequence (Q04609 whole entry): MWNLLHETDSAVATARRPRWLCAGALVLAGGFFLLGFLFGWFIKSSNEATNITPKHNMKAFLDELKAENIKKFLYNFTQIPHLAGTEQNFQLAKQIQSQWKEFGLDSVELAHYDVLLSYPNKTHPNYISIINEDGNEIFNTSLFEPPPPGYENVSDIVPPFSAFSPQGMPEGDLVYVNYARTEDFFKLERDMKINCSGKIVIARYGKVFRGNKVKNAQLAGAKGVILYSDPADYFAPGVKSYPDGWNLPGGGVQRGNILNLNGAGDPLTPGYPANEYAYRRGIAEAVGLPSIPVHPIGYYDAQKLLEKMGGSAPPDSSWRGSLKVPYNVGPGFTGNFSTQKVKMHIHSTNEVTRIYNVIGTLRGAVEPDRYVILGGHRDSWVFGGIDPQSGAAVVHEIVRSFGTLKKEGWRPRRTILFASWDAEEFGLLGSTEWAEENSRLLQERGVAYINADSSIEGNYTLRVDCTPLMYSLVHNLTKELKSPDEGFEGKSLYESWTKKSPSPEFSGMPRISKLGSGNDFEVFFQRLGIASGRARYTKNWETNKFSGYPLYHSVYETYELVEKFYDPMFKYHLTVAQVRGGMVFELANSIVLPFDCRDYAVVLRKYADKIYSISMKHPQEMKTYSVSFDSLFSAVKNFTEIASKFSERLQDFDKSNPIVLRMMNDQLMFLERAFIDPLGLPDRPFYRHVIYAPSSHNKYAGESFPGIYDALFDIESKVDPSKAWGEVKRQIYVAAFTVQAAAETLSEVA
Protocol: In vitro Inhibition of NAALADase Activity
Protocol for Assaying in vitro Inhibition of NAALADase Activity
The following were combined in assay tubes: 100 μL of 10 mM CoCl2, 250 μL of 200 mM Tris chloride, 100 μL tissue, 100 μL of 10 mM NAALADase inhibitor in Bakers H2O, and Bakers H2O to make a total volume of 950 μL. Each assay tube was then incubated for 10 minutes in a 37° C. water bath. […] The assay was stopped by adding 1.0 ml of 0.1 M sodium phosphate.
Glutamate released by the action of the NAALADase enzyme was separated from the assay solution using an anion exchange resin. The resin was equilibrated to 25° C., 2.0 ml of the resin was added to a Pasteur pipette pre-loaded with a single glass bead, and each column was washed twice with distilled H2O. A column was placed over a scintillation vial and 200 μL of an assay sample was loaded onto the column. After draining, glutamate was eluted using two 1.0 ml washes of 1 M formic acid. After addition of 10 ml of scintillation cocktail, each sample was counted for 2 minutes on a scintillation counter.

[1] = system: chronic constrictive injury-induced rats; assay: Neuropathic pain in CCI model (sciatic nerve ligation); type: in vivo
Protocol: In vivo Assay of NAALADase Inhibitors on Neuropathic Pain in CCI Model
Sciatic nerve ligation, consisting of 4 ligatures tied loosely around the sciatic nerve at 1 mm intervals proximal to the nerve trifurcation, was performed on rats. […] The rats were habituated to a Hargreaves apparatus. An infrared heat source was directed onto the dorsal surface of each rat's hindpaws and the time taken for the rat to withdraw its paws was noted. The difference in scores between the latency of the response for the paw on the operated side versus the paw on the unoperated control side was determined.

STZ diabetic rats [2] = assay: Reversal of diabetic neuropathy in STZ model, delayed dosing: thermal hyperalgesia; type: in vivo; settings: daily p.o., treatment from 5 weeks post STZ, within two weeks of treatment, FIG. 22
Protocol: (§1) In vivo Assay of NAALADase Inhibitors—Reversal of Diabetic Neuropathy in STZ Model
(§2) General Method for STZ Model—Delayed Dosing
(§3) Rats (200–225 grams) were injected with STZ (70 mg/kg) into the tail vein. Diabetes (>350 mg/dl) was confirmed in all rats, 4 weeks after STZ administration. Rats were left untreated until 35–49 days after STZ. Compound D (1, 3, or 10 mg/kg), Compound E (10 mg/kg), or vehicle were dosed daily p.o. following confirmation of hyperalgesia and/or nerve conduction velocity deficits. In separate experiments, onset of treatment was delayed until 60 to 90 days after STZ administration. Nerve conduction velocity or withdrawal response to thermal stimulation of hind paws was measured at intervals, usually bi-weekly for thermal response and monthly for nerve conduction velocity.
Animals were acclimated to the apparatus for at least 5 min. An infra-red source was placed under below the plantar surface of the rat hind-paw. The intensity of the source was adjusted so that latency for normal rats was about 10 secs. Animals were tested for thermal response latency according to the method of Hargreaves et al (Pain 77–88, 1988). Each animal was tested 8 times (4 each hind limb) and the latency of response recorded automatically to nearest 0.1 sec. An average of the last 4 measurements for each paw was calculated (8 total measurements) and noted for each rat.

STZ diabetic rats [3] = assay: Reversal of diabetic neuropathy in STZ model, delayed dosing: nerve conduction velocity; type: in vivo; settings: daily p.o., within 8 weeks of dosing, persisted through 12 weeks, FIG. 23
Protocol: as §1, §2, §3
Nerve Conduction Velocity Measurements
Sensory and motor nerve conduction velocities were evaluated using the method of De Koning and Gispen (Peptides 8: 415–422, 1987). Electrophysiological evaluation was carried out within one hour of dosing. Animals were anesthetized with isoflurane and stimulating needle electrodes were inserted close to the sciatic nerve at the sciatic notch and the tibial nerve near the ankle. Recording electrodes were placed over the foot muscles. Stimuli were applied and responses recorded. Motor and sensory nerve conduction velocities were calculated by measuring the distance between the sciatic notch and ankle sites, and the latency between the M-wave and the H-reflex.

IC50 (NAALADase) [nM]	SMILES	EC50 (cortical cell cultures) [nM]	also measured
–	O=C(O)c1cccc(COc2ccc(CCS)c(C(=O)O)c2)c1 [Compound 6, 5-[(3-carboxyphenyl)methoxy]-2-(2-mercaptoethyl)-benzoic acid]	84	–
100000	O=C(O)c1ccccc1CS [Compound 31, 2-(mercaptomethyl)-benzoic acid]	–	–
–	O=C(O)c1cc(CS)ccc1Br [Compound 25, 2-bromo-5-(mercaptomethyl)-benzoic acid]	2000	–
40	COc1ccc(C(=O)O)c(COc2cccc(CCS)c2C(=O)O)c1 [Compound 39, 2-[(2-carboxy-5-methoxyphenyl)methoxy]-6-(2-mercaptoethyl)-benzoicacid]	–	–
1	O=C(O)c1cccc(COc2cccc(CCS)c2C(=O)O)c1 [Compound 40, 2-(3-carboxy-benzyloxy)-6-(2-mercapto-ethyl)-benzoic acid]	–	–
300	CC(C)(C)c1ccc(COc2cccc(CCS)c2C(=O)O)cc1 [Compound 42, 2-(4-tert-butyl-benzyloxy)-6-(2-mercapto-ethyl)-benzoic acid]	–	–
89.8	O=C(O)c1c(CCS)cccc1OCc1ccccc1 [Compound 7, 2-(2-mercaptoethyl)-6-(phenylmethoxy)-benzoic acid]	96	–
18	O=C(O)c1ccc(COc2cccc(CCS)c2C(=O)O)cc1Br [Compound 20, 2-[(3-bromo-4-carboxyphenyl)methoxy]-6-(2-mercaptoethyl)-benzoic acid]	–	–
104	O=C(O)c1c(CCS)cccc1OCc1cccc(Br)c1 [Compound 43, 2-(3-bromo-benzyloxy)-6-(2-mercapto-ethyl)-benzoic acid]	–	–
95	O=C(O)c1c(CCS)cccc1OCc1ccccc1-c1ccccc1 [Compound 33, 2-(biphenyl-2-ylmethoxy)-6-(2-mercaptoethyl)-benzoic acid]	–	–
100	COc1ccc(COc2cccc(CCS)c2C(=O)O)cc1 [Compound 36, 2-(2-mercaptoethyl)-6-[(4-methoxyphenyl)methoxy]-benzoic acid]	–	–
–	O=C(O)c1ccccc1COc1cccc(CCS)c1C(=O)O [Compound 8, 2-[(2-carboxyphenyl)methoxy]-6-(2-mercaptoethyl)-benzoic acid]	29	–
75400	O=C(O)c1c(CCS)cccc1-c1ccccc1 [Compound 47, 3-(2-mercapto-ethyl)-biphenyl-2-carboxylic acid]	–	–
–	O=C(O)c1cc(CS)ccc1OCc1ccccc1 [Compound 27, 5-(mercaptomethyl)-2-(phenylmethoxy)-benzoic acid]	728	–
43	O=C(O)Cc1cccc(CCS)c1C(=O)O [Compound 48, 2-carboxymethyl-6-(2-mercapto-ethyl)-benzoic acid]	–	–
12200	O=C(O)c1c(CCS)cccc1OCc1cccc(Cl)c1 [Compound 46, 2-(3-chloro-benzyloxy)-6-(2-mercapto-ethyl)-benzoic acid]	–	–
0.9	O=C(O)c1cc(Br)cc(COc2cccc(CCS)c2C(=O)O)c1 [Compound 34, 2-[(3-bromo-5-carboxyphenyl)methoxy]-6-(2-mercaptoethyl)-benzoic acid]	–	–

IC50 (NAALADase) [nM]	SMILES	EC50 (cortical cell cultures) [nM]	also measured
35200	O=C(O)c1c(CCS)cccc1OC(c1ccccc1)c1ccccc1 [Compound 45, 2-benzhydryloxy-6-(2-mercapto-ethyl)-benzoic acid]	–	–
70	Cc1ccc(COc2cccc(CCS)c2C(=O)O)cc1 [Compound 37, 2-(2-mercaptoethyl)-6-[(4-methylphenyl)methoxy]-benzoic acid]	–	–
–	O=C(O)c1ccc(COc2ccc(CCS)c(C(=O)O)c2)cc1 [Compound 3, 5-[(4-carboxyphenyl)methoxy]-2-(2-mercaptoethyl)-benzoic acid]	10000	–
25	O=C(O)c1c(CCS)cccc1OCc1ccc(Cl)cc1 [Compound 32, 2-[(4-chlorophenyl)methoxy]-6-(2-mercaptoethyl)-benzoic acid]	–	–
–	O=C(O)c1ccccc1CCS [Compound 1, 2-(2-mercaptoethyl)-benzoic acid]	846	–
28.8	O=C(O)c1ccc(COc2cccc(CCS)c2C(=O)O)cc1 [Compound 9, 2-[(4-carboxyphenyl)methoxy]-6-(2-mercaptoethyl)-benzoic acid]	19	withdrawal latency difference scores between operated and unoperated paws ([1]; 10, 1 or 0.1 mg/kg for 15 days after sciatic nerve ligation, FIG. 13): normalized the difference in scores
–	O=C(O)c1cccc(CS)c1 [Compound 30, 3-(mercaptomethyl)-benzoic acid]	619	–
–	O=C(O)c1cccc(-c2cccc(CCS)c2C(=O)O)c1 [Compound 10, 3-(2-mercaptoethyl)-[1,1′-biphenyl]-2,3′-dicarboxylic acid]	–	withdrawal latency difference scores between operated and unoperated paws ([1]; 0.1 mg/kg for 18 days after sciatic nerve ligation, FIG. 14): normalized the difference in scores
1.2	O=C(O)c1ccc(Br)c(COc2cccc(CCS)c2C(=O)O)c1 [Compound 35, 2-[(2-bromo-5-carboxyphenyl)methoxy]-6-(2-mercaptoethyl)-benzoic acid]	–	–
–	O=C(O)c1cccc(CCS)c1 [Compound 29, 3-(2-mercaptoethyl)-benzoic acid]	2400	–
1250	O=C(O)c1c(CCS)cccc1OCc1ccc(Br)cc1 [Compound 41, 2-(4-bromo-benzyloxy)-6-(2-mercapto-ethyl)-benzoic acid]	–	–
954	COc1cccc(CCS)c1C(=O)O [Compound 44, 2-(2-mercapto-ethyl)-6-methoxy-benzoicacid]	–	–
–	O=C(O)c1cc(OCc2ccccc2)ccc1CCS [Compound 4, 2-(2-mercaptoethyl)-5-(phenylmethoxy)-benzoic acid,]	9600	–
–	O=C(O)c1cccc(CC(CCCS)C(=O)O)c1 (stereo not drawn) [Compound E, 3-Carboxy-alpha-(3-mercaptopropyl)-benzenepropanoic acid]	–	neuropathic hyperalgesia (thermal response latency) (STZ diabetic rats [2]): reversed towards normal; motor nerve conduction velocity (STZ diabetic rats [3]): reversed the motor nerve conduction velocity towards normal
24.3	O=C(O)c1cccc(-c2ccc(CS)cc2C(=O)O)c1 [Compound 26, 4-(mercaptomethyl)-[1,1′-biphenyl]-2,3′-dicarboxylic acid]	151	–
0.8	O=C(O)c1cc(COc2cccc(CCS)c2C(=O)O)ccc1Br [Compound 38, 2-[(4-bromo-3-carboxyphenyl)methoxy]-6-(2-mercaptoethyl)-benzoic acid]	–	–
